Results taken from publication PMC7934871 (JCI Insight, 2021).
Non-standard residues stand in square brackets, D forms with d. No end group written: not given here. pY = N[C@@H](Cc1ccc(OP(=O)(O)O)cc1)C(=O)O

What was measured:
KPC mouse PDAC cells = experiment: KPC mouse PDAC tumor model in C57BL/6 mice; format: in vivo; settings: KPC s.c. in C57BL/6 mice, i.v. 1 mg/kg every other day for 18 days (combination 0.5 mg/kg each), n = 5
Experimental: SD is shown. […] SD is shown.
Mouse care and experimental procedures were performed under pathogen-free conditions in accordance with established institutional guidance and approved IACUC protocols from Research Animal Care Committee of the City of Hope. For s.c. tumor challenge, 5 × 10^6 HCT116 cells were injected into NSG mice from The Jackson Laboratory or animal resource core facility at the City of Hope. After tumors reached an average size of 80~100 mm^3, mice were locally or intravenously treated with 1 mg/kg of PO- or PS-peptides (Anaspec) every day or every other day. Control animals were treated with the equal volume of HBSS (Invitrogen, Thermo Fisher Scientific). Tumor growth was measured by a digital caliper every other day. To study the effects of the modified peptides at protein and gene levels, mice were euthanized 4–6 weeks after tumor injection. B16 melanoma lung metastasis was performed by injecting 0.5 × 10^6 B16 cells into bloodstream of C57BL/6 mice (The Jackson Laboratory). One day after tumor challenge, mice were treated intravenously (retro-orbitally) with 1 mg/kg of PO- or PS-acet.-STAT3, PS-unacet.-STAT3, or PS-STAT3-K685R peptides every other day until the endpoint as indicated. […] Lungs were then analyzed for immune responses by immunostaining followed by confocal imaging. […] Tumor growth was measured by a digital caliper every other day. […]

STAT3 signaling = experiment: Gene expression of STAT3 targets by quantitative PCR; format: cell-based; settings: 1 μM, with or without IL-6 stimulation, n = 3
Experimental: Figure 8 PS-Gp130 and PS-MYC blocking peptides efficiently internalize into tumor cells to exert their functions. (A) For 1 hour 1 μM of PS-conjugated MYC (PS-MYC) and Gp130 (PS-Gp130) were incubated with cancer cells. PS-scramble MYC (PS-SC-MYC) was used as a control for PS-MYC. The peptide uptake was visualized by confocal microscopy and quantified by flow cytometry. Data are representative of 3 independent experiments (n = 3). (B) Upper panel: The binding of PS-Gp130 and STAT3 was examined by immunoprecipitation and Western blotting. PO-Gp130 was used as a control. For 4 hours prior to harvest, 1 μM of peptide was incubated with cells. […] (C) Gene expression of STAT3 targets was examined by quantitative PCR after the treatment with 1 μM of PS-Gp130 with or without IL-6 stimulation as described above. […] (D) A total of 1 μM of PS-SC-MYC or PS-MYC was incubated with cells for 48 hours before the gene expression of MYC targets was examined by quantitative PCR. […]
Total RNA was extracted from cultured or tumor tissues using RNeasy kit (QIAGEN), according to manufacturer’s instruction. After cDNA synthesis using iScript cDNA Synthesis kit (Bio-Rad), samples were analyzed using pairs of primers specific for CASP9, CASP3, CASP8, BIRC5, BCL2L1, MYC, TP53, VEGF, IL1B, SERPIN3, FGA, CDK4, CCND2, CDKN2A, CDKN2B, GADD45A, mCD274, mMmp9, and mBirc5, as indicated. […]

For “PS-Gp130: PS-conjugated Gp130 peptide (amino acids 901–910) with phospho-Tyr905 (MPKS[pY]LPQTV; also: phosphorothioate oligonucleotide conjugate; UniProt P40189 901-910, looked up, fragment)”, the PDAC tumor growth (KPC mouse PDAC cells) was “significantly inhibited” and the “STAT3 signaling (gene expression of STAT3 targets)” value (STAT3 signaling) was “significantly blocked”.
